Key:
[1] = Selectivity ratio of IC50 for HEK293-A cells to IC50 for antiproliferative activity against human NCI-H1975 cells; type: toxicity, cell-based; settings: HEK293-A cells versus NCI-H1975 cells, read-out: Ratio IC50
NCI-H1975 [2] = assay: Induction of apoptosis in human NCI-H1975 cells harboring EGFR T790M/L858R mutant assessed as late apoptotic cells at 1 nM measured after 48 hrs by Annexin-V-FITC/propidium iodide staining based flow cytometry (reference value: 0.04%); type: functional
HK-2 = assay: Cytotoxicity against HK-2 cells assessed as reduction in cell viability by MTT assay; type: cell-based; settings: Homo sapiens
NCI-H1975 [3] = assay: Induction of apoptosis in human NCI-H1975 cells harboring EGFR T790M/L858R mutant assessed as necrotic cells at 5 nM measured after 48 hrs by Annexin-V-FITC/propidium iodide staining based flow cytometry (reference value: […]); type: functional
[4] = Toxicity in nude mouse xenografted with human NCI-H1975 cells harboring EGFR T790M/L858R mutant assessed as body weight loss at 15 mg/kg, po administered once daily for 7 days relative to control; type: organism-based; settings: in vivo, 168 h, time 7 day

## C=CC(=O)Nc1cc(Nc2nccc(-c3cn(C4CC4)c4ccccc34)n2)c(OC)cc1[S+]([O-])CCN(C)C (stereo not given)
[1]
  selectivity ratio: 383
NCI-H1975 [2]
  Activity: 1.64%
HK-2
  IC50: 5.86 µM
NCI-H1975 [3]
  Activity: 7.42%
[4]
  Activity: < 5%
